Laboratory results published in patent US20240365784A1, “AZOLE COMPOUNDS FOR CONTROLLING INVERTEBRATE PESTS” (FMC Corporation, priority 2021, published 2024).

What was measured:
[1] = system: corn planthopper (Peregrinus maidis (Ashmead)); test: whole plant or invertebrate; format: in vivo; details: 144 h, corn plant, nymphs, assessed after 6 days; for mortality at 10 ppm: sprayed at 10 ppm; for mortality at 50 ppm: sprayed at 50 ppm
Method: (§1) Test compounds were formulated using a solution containing 10% acetone, 90% water and 300 ppm Activator 90® non-ionic surfactant (Loveland Products, Loveland, Colorado, USA). The formulated compounds were applied in 1 mL of liquid through an atomizer nozzle positioned 1.27 cm (0.5 inches) above the top of each test unit. Test compounds were sprayed at the rates indicated, and each test was replicated three times.
For evaluating control of corn planthopper (Peregrinus maidis (Ashmead)) through contact and/or systemic means, the test unit consisted of a small open container with a 3-4-day-old corn (maize) plant inside. White sand was added to the top of the soil prior to application of the test compound.
(§2) Test compounds were formulated and sprayed at 250 and/or 50 ppm and/or 10 ppm. After spraying of the formulated test compound, the test units were allowed to dry for 1 h before they were post-infested with ˜15-20 nymphs (18-to-21-day-old). A black, screened cap was placed on the top of each test unit, and the test units were held for 6 days in a growth chamber at 22-24° C. and 50-70% relative humidity. Each test unit was then visually assessed for insect mortality.

[2] = system: cotton melon aphid (Aphis gossypii (Glover)); test: whole plant or invertebrate; format: in vivo; details: 144 h, okra plant, assessed after 6 days; for mortality at 50 ppm: sprayed at 50 ppm; for mortality at 10 ppm: tested at 10 ppm
Method: as §1
For evaluating control of cotton melon aphid (Aphis gossypii (Glover)) through contact and/or systemic means, the test unit consisted of a small open container with a 5-day-old okra plant inside. This was pre-infested with 30-40 insects on a piece of leaf according to the cut-leaf method, and the soil of the test unit was covered with a layer of sand.
[…] After spraying, the test units were maintained in a growth chamber for 6 days at 19° C. and 70% relative humidity. Each test unit was then visually assessed for insect mortality.

[3] = system: sweetpotato whitefly (Bemisia tabaci (Gennadius)); test: whole plant or invertebrate; format: in vivo; details: 312 h, cotton plant infested with eggs, assessed after 13 days; for mortality at 50 ppm: sprayed at 50 ppm; for mortality at 10 ppm: tested at 10 ppm
Method: as §1
For evaluating control of the sweetpotato whitefly (Bemisia tabaci (Gennadius)) through contact and/or systemic means, the test unit consisted of a small open container with a 12-14-day-old cotton plant inside. Prior to the spray application, both cotyledons were removed from the plant, leaving one true leaf for the assay. Adult whiteflies were allowed to lay eggs on the plant and then were removed from the test unit. Cotton plants infested with at least 15 eggs were submitted to the test for spraying.
[…] After spraying, the test units were allowed to dry for 1 hour. The cylinders were then removed, and the units were taken to a growth chamber and held for 13 days at 28° C. and 50-70% relative humidity. Each test unit was then visually assessed for insect mortality.

[4] = system: Brown Planthopper (Nilaparvata lugens (Stil)); test: Test F: control of Brown Planthopper, spray, contact and/or systemic; format: in vivo; details: 120 h, sprayed at 10 ppm, rice stems, nymphs, assessed after 5 days
Method: as §1
For evaluating control of Brown Planthopper (Nilaparvata lugens (Stil)) through contact and/or systemic means, the test unit consisted of a small open container with 6-10 25-day-old rice stems inside. White sand was added to the top of the soil prior to application of the test compound.
as §2, with “at” for “at 250 and/or”, “(15-to-17-day-old).” for “(18-to-21-day-old).”, “5” for “6”, “28°” for “22-24°”, “65%” for “50-70%”

[5] = system: green peach aphid (Myzus persicae (Sulzer)); test: whole plant or invertebrate; format: in vivo; details: 144 h, sprayed at 50 ppm, radish plant, assessed after 6 days
Method: as §1
For evaluating control of green peach aphid (Myzus persicae (Sulzer)) through contact and/or systemic means, the test unit consisted of a small open container with a 12-15-day-old radish plant inside. This was pre-infested by placing on a leaf of the test plant 30-40 aphids on a piece of leaf excised from a culture plant (cut-leaf method). The aphids moved onto the test plant as the leaf piece desiccated. After pre-infestation, the soil of the test unit was covered with a layer of sand.
Test compounds were formulated and sprayed at 250 and/or 50 ppm. After spraying of the formulated test compound, each test unit was allowed to dry for 1 hour and then a black, screened cap was placed on top. The test units were held for 6 days in a growth chamber at 19-21° C. and 50-70% relative humidity. Each test unit was then visually assessed for insect mortality.

[6] = system: green peach aphid (Myzus persicae (Sulzer)); test: whole plant or invertebrate; format: in vivo; details: 144 h, tested at 10 ppm, radish plant, assessed after 6 days
[7] = system: potato leafhopper (Empoasca fabae (Harris)); test: Test B: control of potato leafhopper, spray, contact and/or systemic; format: in vivo; details: tested at 50 ppm; Soleil bean plant, adults, assessed after 6 days
Method: as §1
Each test unit was then visually assessed for insect mortality.

melting point [°C]	SMILES	mortality at 10 ppm [1] [%]	mortality at 50 ppm [2] [%]	mortality at 10 ppm [2] [%]	mortality at 50 ppm [3] [%]	mortality at 10 ppm [3] [%]	mortality at 10 ppm [4] [%]	mortality at 50 ppm [5] [%]	mortality at 10 ppm [6] [%]	mortality at 50 ppm [1] [%]	mortality [7]
–	Fc1cncc(-n2cccn2)c1Cc1ccc(SC(F)(F)F)cc1 [Compound 19]	≥ 80	≥ 80	≥ 80	≥ 70	≥ 70	≥ 80	≥ 80	–	–	–
–	Fc1cncc(-n2cncn2)c1Cc1ccc(SC(F)(F)F)cc1 [Compound 24]	–	≥ 80	–	–	–	–	≥ 80	≥ 80	–	–
–	Fc1cncc(-n2nccn2)c1Cc1ccc(SC(F)(F)F)cc1 [Compound 2]	≥ 80	≥ 80	≥ 80	–	–	≥ 80	≥ 80	≥ 80	≥ 80	–
–	FC(F)(F)Sc1ccc(Cc2c(Cl)cncc2-n2nccn2)cc1 [Compound 5]	≥ 80	≥ 80	–	≥ 70	≥ 70	≥ 80	≥ 80	≥ 80	≥ 80	–
80 to 83	Fc1cncc(-n2nccn2)c1Cc1ccc(Br)cc1 [Compound 31]	–	–	–	–	–	–	–	–	–	–
–	Fc1cc(Cc2c(Cl)cncc2-n2nccn2)ccc1OC(F)(F)F [Compound 70]	≥ 80	≥ 80	≥ 80	–	–	–	≥ 80	≥ 80	≥ 80	–
–	FC(F)(F)Sc1ccc(Cc2c(Cl)cncc2-n2cccn2)cc1 [Compound 20]	≥ 80	≥ 80	≥ 80	≥ 70	≥ 70	≥ 80	≥ 80	–	≥ 80	–
–	Cc1cnn(-c2cncc(F)c2Cc2ccc(OC(F)(F)F)cc2)n1 [Compound 3, 3-fluoro-5-(4-methyltriazol-2-yl)-4-[[4-(trifluoromethoxy)phenyl]methyl]pyridine]	–	–	–	–	–	–	–	–	–	at least 80%
–	FC(F)(F)Sc1ccc(Cc2c(Cl)cncc2-n2cncn2)cc1 [Compound 21]	–	≥ 80	–	≥ 70	≥ 70	–	≥ 80	≥ 80	–	–
81 to 84	[O-][S+](c1ccc(Cc2ccncc2-n2nccn2)cc1)C(F)(F)F (centres unmarked) [Compound 28]	–	–	–	–	–	–	–	–	–	–
–	FC(F)(F)Sc1ccc(Cc2c(Br)cncc2-n2nccn2)cc1 [Compound 26]	≥ 80	≥ 80	≥ 80	≥ 70	≥ 70	≥ 80	≥ 80	≥ 80	≥ 80	–
